The text below walks through data of US8796289B2 (AbbVie Inc., priority 2011, dated 2014).

SMILES strings stand for the structures. pKi: −log10 of the molar value. Where only a bound is given, the exact number is not on record here.

Chain of GST-tagged-Wee1 kinase (P30291 whole entry): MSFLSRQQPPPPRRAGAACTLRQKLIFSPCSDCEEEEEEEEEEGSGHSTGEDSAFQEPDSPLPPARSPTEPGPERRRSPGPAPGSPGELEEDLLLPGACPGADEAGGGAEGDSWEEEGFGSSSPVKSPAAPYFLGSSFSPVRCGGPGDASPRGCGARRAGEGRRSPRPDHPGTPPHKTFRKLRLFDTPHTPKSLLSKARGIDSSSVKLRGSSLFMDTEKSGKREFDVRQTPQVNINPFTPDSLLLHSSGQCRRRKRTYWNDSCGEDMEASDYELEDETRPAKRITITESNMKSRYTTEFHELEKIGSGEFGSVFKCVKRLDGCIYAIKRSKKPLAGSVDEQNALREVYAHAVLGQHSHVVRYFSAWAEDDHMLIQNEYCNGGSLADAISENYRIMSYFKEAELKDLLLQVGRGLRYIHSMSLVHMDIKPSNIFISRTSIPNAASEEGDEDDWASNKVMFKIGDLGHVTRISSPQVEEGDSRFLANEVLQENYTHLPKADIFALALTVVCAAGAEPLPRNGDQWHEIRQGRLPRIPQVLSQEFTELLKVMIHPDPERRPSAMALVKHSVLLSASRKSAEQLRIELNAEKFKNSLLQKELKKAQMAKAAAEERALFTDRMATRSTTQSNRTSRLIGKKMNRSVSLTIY

The assay has as its target GST-tagged-Wee1 kinase (Homo sapiens, UniProt P30291). Put plainly: Wee1 time-resolved fluorescence equilibrium binding assay (displacement of Oregon Green-labeled ATP-competitive kinase probe). On the procedure: Wee1 kinase was assayed using a time-resolved fluorescence equilibrium binding assay monitoring displacement of a rapidly reversible Oregon Green-labeled ATP-competitive kinase probe (N-(2-(2-(2-(4-(4-(5-chloro-4-(2-(1-hydroxycyclobutyl)thiazol-5-yl)-1H-pyrrolo[2,3-b]pyridin-2-yl)phenyl)piperazin-1-yl)ethoxy)ethoxy)ethyl)-2′,7′-difluoro-3′,6′-dihydroxy-3-oxo-3H-spiro[isobenzofuran-1,9′-xanthene]-5-carboxamide) by competitive Wee1 inhibitors.
`C=Cn1ccc(-c2nn(-c3c(Cl)cccc3Cl)c(=O)c3cnc(Nc4ccc(N5CCN(C)CC5)cc4)nc23)n1` [Example 236, 6-(2,6-dichlorophenyl)-8-(1-ethenyl-1H-pyrazol-3-yl)-2-{[4-(4-methylpiperazin-1-yl)phenyl]amino}pyrimido[4,5-d]pyridazin-5(6H)-one] gave a pKi greater than 9.00.
Molecule `O=c1c2cnc(Nc3ccc(N4CCNCC4)cc3)nc2c(-c2cccc(CN3CCCCC3)c2)nn1-c1c(Cl)cccc1Cl` [Example 237, 6-(2,6-dichlorophenyl)-2-{[4-(piperazin-1-yl)phenyl]amino}-8-[3-(piperidin-1-ylmethyl)phenyl]pyrimido[4,5-d]pyridazin-5(6H)-one] showed a negative logarithm of the Ki (pKi) of 9.70.
On to `CC1(C)CNCc2cc(Nc3ncc4c(=O)n(-c5ccncc5)nc(-c5ccccn5)c4n3)ccc21` [Example 238, 2-[(4,4-dimethyl-1,2,3,4-tetrahydroisoquinolin-7-yl)amino]-8-(pyridin-2-yl)-6-(pyridin-4-yl)pyrimido[4,5-d]pyridazin-5(6H)-one], for which the negative logarithm of the Ki (pKi) is 7.47.
Then `CN1Cc2cc(Nc3ncc4c(=O)n(-c5ccncc5)nc(-c5ccccn5)c4n3)ccc2C(C)(C)C1` [Example 239, 8-(pyridin-2-yl)-6-(pyridin-4-yl)-2-[(2,4,4-trimethyl-1,2,3,4-tetrahydroisoquinolin-7-yl)amino]pyrimido[4,5-d]pyridazin-5(6H)-one], with 7.60; and `CN(C)CCn1ccc(-c2nn(-c3c(Cl)cccc3Cl)c(=O)c3cnc(Nc4ccc(N5CCN(C)CC5)cc4)nc23)n1` [Example 240, 6-(2,6-dichlorophenyl)-8-{1-[2-(dimethylamino)ethyl]-1H-pyrazol-3-yl}-2-{[4-(4-methylpiperazin-1-yl)phenyl]amino}pyrimido[4,5-d]pyridazin-5(6H)-one], with 9.30; and `CN1Cc2cc(Nc3ncc4c(=O)n(-c5c(Cl)cccc5Cl)nc(-c5ccccn5)c4n3)ccc2C(C)(C)C1` [Example 241, 6-(2,6-dichlorophenyl)-8-(pyridin-2-yl)-2-[(2,4,4-trimethyl-1,2,3,4-tetrahydroisoquinolin-7-yl)amino]pyrimido[4,5-d]pyridazin-5(6H)-one], with 10.00.
Take `CN1Cc2cc(Nc3ncc4c(=O)n(CCO)nc(-c5ccccn5)c4n3)ccc2C(C)(C)C1` [Example 242, 6-(2-hydroxyethyl)-8-(pyridin-2-yl)-2-[(2,4,4-trimethyl-1,2,3,4-tetrahydroisoquinolin-7-yl)amino]pyrimido[4,5-d]pyridazin-5(6H)-one]: the pKi was 7.30.
`CN1CCN(c2ccc(Nc3ncc4c(=O)n(-c5c(Cl)cccc5Cl)nc(-c5cccc(F)n5)c4n3)cc2)CC1` [Example 243, 6-(2,6-dichlorophenyl)-8-(6-fluoropyridin-2-yl)-2-{[4-(4-methylpiperazin-1-yl)phenyl]amino}pyrimido[4,5-d]pyridazin-5(6H)-one] gave a pKi greater than 9.00.
The figure for `CN1CCN(c2ccc(Nc3ncc4c(=O)n(-c5c(Cl)cccc5Cl)nc(-c5ccc(N6CCCC6=O)cc5)c4n3)cc2)CC1` [Example 244, 6-(2,6-dichlorophenyl)-2-{[4-(4-methylpiperazin-1-yl)phenyl]amino}-8-[4-(2-oxopyrrolidin-1-yl)phenyl]pyrimido[4,5-d]pyridazin-5(6H)-one] is 9.30; for `CN1CCc2ccc(Nc3ncc4c(=O)n(-c5ccccc5Cl)nc(-c5ccccc5)c4n3)cc2C1` [Example 245, 6-(2-chlorophenyl)-2-[(2-methyl-1,2,3,4-tetrahydroisoquinolin-7-yl)amino]-8-phenylpyrimido[4,5-d]pyridazin-5(6H)-one] it is 9.15.
Molecule `Cc1cc(Nc2ncc3c(=O)n(-c4ccccc4C)nc(-c4ccco4)c3n2)ccc1N1CCCN(C(C)C)CC1` [Example 246, 8-(furan-2-yl)-6-(2-methylphenyl)-2-({3-methyl-4-[4-(propan-2-yl)-1,4-diazepan-1-yl]phenyl}amino)pyrimido[4,5-d]pyridazin-5(6H)-one] had a pKi of 9.52.
Take `O=C1CCCN1c1ccc(-c2nn(-c3c(Cl)cccc3Cl)c(=O)c3cnc(Nc4ccc5c(c4)CNCC5)nc23)cc1` [Example 247, 6-(2,6-dichlorophenyl)-8-[4-(2-oxopyrrolidin-1-yl)phenyl]-2-(1,2,3,4-tetrahydroisoquinolin-7-ylamino)pyrimido[4,5-d]pyridazin-5(6H)-one]: the pKi was 9.70.
`CN1CCN(c2ccc(Nc3ncc4c(=O)n(-c5c(Cl)cccc5Cl)nc(-c5ccnc(C(=O)N(C)C)c5)c4n3)cc2)CC1` [Example 248, 4-[6-(2,6-dichlorophenyl)-2-{[4-(4-methylpiperazin-1-yl)phenyl]amino}-5-oxo-5,6-dihydropyrimido[4,5-d]pyridazin-8-yl]-N,N-dimethylpyridine-2-carboxamide] showed a pKi of 9.40.
`O=c1c2cnc(Nc3ccc(N4CCNCC4)cc3)nc2c(-c2ccccn2)nn1C1CCCCC1` [Example 249, 6-cyclohexyl-2-{[4-(piperazin-1-yl)phenyl]amino}-8-(pyridin-2-yl)pyrimido[4,5-d]pyridazin-5(6H)-one]: the pKi was 5.82.
As for `CN1CCN(c2ccc(Nc3ncc4c(=O)n(-c5c(Cl)cccc5Cl)nc(-c5ccnc(C(C)(C)O)c5)c4n3)cc2)CC1` [Example 250, 6-(2,6-dichlorophenyl)-8-[2-(2-hydroxypropan-2-yl)pyridin-4-yl]-2-{[4-(4-methylpiperazin-1-yl)phenyl]amino}pyrimido[4,5-d]pyridazin-5(6H)-one], the pKi was 9.70.
Turning to `O=c1c2cnc(Nc3ccc4c(c3)CNCC4)nc2c(-c2cnccn2)nn1-c1c(Cl)cccc1Cl` [Example 251, 6-(2,6-dichlorophenyl)-8-(pyrazin-2-yl)-2-(1,2,3,4-tetrahydroisoquinolin-7-ylamino)pyrimido[4,5-d]pyridazin-5(6H)-one], the pKi is 9.70.
Then `COCCn1ccc(-c2nn(-c3c(Cl)cccc3Cl)c(=O)c3cnc(Nc4ccc(N5CCN(C)CC5)cc4)nc23)n1` [Example 252, 6-(2,6-dichlorophenyl)-8-[1-(2-methoxyethyl)-1H-pyrazol-3-yl]-2-{[4-(4-methylpiperazin-1-yl)phenyl]amino}pyrimido[4,5-d]pyridazin-5(6H)-one], with 9.40; and `O=c1c2cnc(Nc3ccc4c(c3)CNCC43CC3)nc2c(-c2ccncc2)nn1-c1c(Cl)cccc1Cl` [Example 253, 6-(2,6-dichlorophenyl)-2-(2′,3′-dihydro-1′H-spiro[cyclopropane-1,4′-isoquinolin]-7′-ylamino)-8-(pyridin-4-yl)pyrimido[4,5-d]pyridazin-5(6H)-one], with 10.05; and `O=C1CCCN1c1ccc(-c2nn(-c3c(Cl)cccc3Cl)c(=O)c3cnc(Nc4ccc(C5CCNCC5)cc4)nc23)cc1` [Example 254, 6-(2,6-dichlorophenyl)-8-[4-(2-oxopyrrolidin-1-yl)phenyl]-2-{[4-(piperidin-4-yl)phenyl]amino}pyrimido[4,5-d]pyridazin-5(6H)-one], with 9.52.
As for `O=c1c2cnc(Nc3ccc(S(=O)(=O)N4CCOCC4)cc3)nc2c(-c2ccccc2)nn1-c1ccccc1Cl` [Example 255, 6-(2-chlorophenyl)-2-{[4-(morpholin-4-ylsulfonyl)phenyl]amino}-8-phenylpyrimido[4,5-d]pyridazin-5(6H)-one], the pKi was less than 5.50.
The molecule `CN1Cc2cc(Nc3ncc4c(=O)n(-c5c(Cl)cccc5Cl)nc(-c5ccncc5)c4n3)ccc2C(C)(C)C1` [Example 256, 6-(2,6-dichlorophenyl)-8-(pyridin-4-yl)-2-[(2,4,4-trimethyl-1,2,3,4-tetrahydroisoquinolin-7-yl)amino]pyrimido[4,5-d]pyridazin-5(6H)-one] had a pKi of 9.52.
Molecule `O=c1c2cnc(Nc3ccc4c(c3)CNCC43CC3)nc2c(-c2cccc(F)n2)nn1-c1c(Cl)cccc1Cl` [Example 257, 6-(2,6-dichlorophenyl)-2-(2′,3′-dihydro-1′H-spiro[cyclopropane-1,4′-isoquinolin]-7′-ylamino)-8-(6-fluoropyridin-2-yl)pyrimido[4,5-d]pyridazin-5(6H)-one] gave a pKi of 8.70.
The molecule `C=CCn1nc(-c2ccco2)c2nc(Nc3ccc4c(c3)CN(C)CC4)ncc2c1=O` [Example 258, 8-(furan-2-yl)-2-[(2-methyl-1,2,3,4-tetrahydroisoquinolin-7-yl)amino]-6-(prop-2-en-1-yl)pyrimido[4,5-d]pyridazin-5(6H)-one] had a pKi of 8.70.
The figure for `NCCn1ccc(-c2nn(-c3c(Cl)cccc3Cl)c(=O)c3cnc(Nc4ccc(N5CCNCC5)cc4)nc23)n1` [Example 259, 8-[1-(2-aminoethyl)-1H-pyrazol-3-yl]-6-(2,6-dichlorophenyl)-2-{[4-(piperazin-1-yl)phenyl]amino}pyrimido[4,5-d]pyridazin-5(6H)-one] is 9.70.
As for `CN1CCN(c2ccc(Nc3ncc4c(=O)n(-c5c(Cl)cccc5Cl)nc(-c5ccnc(Cl)c5)c4n3)cc2)CC1` [Example 260, 8-(2-chloropyridin-4-yl)-6-(2,6-dichlorophenyl)-2-{[4-(4-methylpiperazin-1-yl)phenyl]amino}pyrimido[4,5-d]pyridazin-5(6H)-one], the pKi is 9.70.
With `CNCCn1ccc(-c2nn(-c3c(Cl)cccc3Cl)c(=O)c3cnc(Nc4ccc(N5CCN(C)CC5)cc4)nc23)n1` [Example 261, 6-(2,6-dichlorophenyl)-8-{1-[2-(methylamino)ethyl]-1H-pyrazol-3-yl}-2-{[4-(4-methylpiperazin-1-yl)phenyl]amino}pyrimido[4,5-d]pyridazin-5(6H)-one], the pKi is 9.52.
The molecule `CN1Cc2cc(Nc3ncc4c(=O)n(C5CCCCC5)nc(-c5ccccn5)c4n3)ccc2C(C)(C)C1` [Example 262, 6-cyclohexyl-8-(pyridin-2-yl)-2-[(2,4,4-trimethyl-1,2,3,4-tetrahydroisoquinolin-7-yl)amino]pyrimido[4,5-d]pyridazin-5(6H)-one] gave a pKi of 6.23.
